Results: US11352331B2, “Crystal and salt of 4-(naphthalen-1-yl)-4H-1,2,4-triazole compound and preparation method therefor” (MEDSHINE DISCOVERY INC., priority 2017, dated 2022)
Where two headings read alike, the source gives them in different places. Each block holds one compound with its values, some of them ahead of it.

Assays:
URAT-1 = biological target: T1, URAT-1 (Homo sapiens, UniProt Q96S37); assay: Inhibition of 14C-uric acid uptake in MDCK cells stably transfected with URAT-1 gene; assay type: cell-based; conditions: MDCK cells stably transfected with URAT-1, substrate 14C-uric acid 50 μM; read-out: IC50 of the inhibitory effect on URAT-1
T1 construct: expressed in transfected cells
T1 sequence (Q96S37 1-553): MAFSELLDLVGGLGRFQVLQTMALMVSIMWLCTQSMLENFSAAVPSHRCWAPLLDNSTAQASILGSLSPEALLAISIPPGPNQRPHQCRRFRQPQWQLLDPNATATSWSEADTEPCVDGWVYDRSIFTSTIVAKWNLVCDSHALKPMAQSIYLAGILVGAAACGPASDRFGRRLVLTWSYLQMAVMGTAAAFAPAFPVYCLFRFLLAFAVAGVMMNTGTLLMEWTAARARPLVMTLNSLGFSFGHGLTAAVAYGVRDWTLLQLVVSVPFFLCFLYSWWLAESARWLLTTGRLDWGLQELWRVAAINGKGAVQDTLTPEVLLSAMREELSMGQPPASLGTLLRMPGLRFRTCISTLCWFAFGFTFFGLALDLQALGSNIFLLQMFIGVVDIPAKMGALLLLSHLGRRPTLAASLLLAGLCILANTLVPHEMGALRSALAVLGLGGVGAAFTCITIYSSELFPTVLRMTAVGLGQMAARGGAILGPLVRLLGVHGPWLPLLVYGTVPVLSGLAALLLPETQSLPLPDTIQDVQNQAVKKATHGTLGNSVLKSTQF
Procedure: The IC50 values of the compounds in inhibiting uric acid reabsorption were determined using MDCK (canine kidney cell) cell line stably transfected with DRAT-1 (uric acid transporter) gene.
DRAT-1 (MDCK) cell line: MDCK cells stably transfected with URAT-1 gene.
Cell culture medium: MEM (minimum essential medium Eagle) medium supplemented with 10% FBS (fetal bovine serum), 1% sodium pyruvate and 250 μg/mL G418 (geneticin).
1) The supernatant of the cell culture medium was removed by aspiration and the cells were rinsed with 10 mL PBS (phosphate buffered saline solution).
2) Preheated trypsin was added into the rinsed cell culture flask, and then the flask was rotated to make the trypsin evenly cover the bottom of the flask and the cells were digested at room temperature.
3) 10-15 mL of culture medium was used to suspend the cells in each T150 flask. 0.1 mL of the cells was sucked out and 2-fold diluted with trypan blue solution, and then the cells were counted. […]
^14C labelled-uric acid solution was diluted and added into the cell plate to obtain a final concentration of 50 μM. […] After adding the scintillation liquid, the signal was read in a liquid scintillation counter Tri-Carb.
According to the luminescent data, the inhibitory effect of the compounds on URAT-1 was analyzed, and the percent inhibition was calculated. […]

OAT-4 = biological target: T2, OAT-4 (Homo sapiens, UniProt Q9NSA0); assay: Inhibition of substrate uptake in MDCK cells overexpressing OAT-4; assay type: cell-based; conditions: MDCK-OAT4 cells
T2 construct: expressed in transfected cells; host or cells: MDCK (canine kidney) cells; the empty-vector control is pcDNA3.1
T2 sequence (Q9NSA0 1-550): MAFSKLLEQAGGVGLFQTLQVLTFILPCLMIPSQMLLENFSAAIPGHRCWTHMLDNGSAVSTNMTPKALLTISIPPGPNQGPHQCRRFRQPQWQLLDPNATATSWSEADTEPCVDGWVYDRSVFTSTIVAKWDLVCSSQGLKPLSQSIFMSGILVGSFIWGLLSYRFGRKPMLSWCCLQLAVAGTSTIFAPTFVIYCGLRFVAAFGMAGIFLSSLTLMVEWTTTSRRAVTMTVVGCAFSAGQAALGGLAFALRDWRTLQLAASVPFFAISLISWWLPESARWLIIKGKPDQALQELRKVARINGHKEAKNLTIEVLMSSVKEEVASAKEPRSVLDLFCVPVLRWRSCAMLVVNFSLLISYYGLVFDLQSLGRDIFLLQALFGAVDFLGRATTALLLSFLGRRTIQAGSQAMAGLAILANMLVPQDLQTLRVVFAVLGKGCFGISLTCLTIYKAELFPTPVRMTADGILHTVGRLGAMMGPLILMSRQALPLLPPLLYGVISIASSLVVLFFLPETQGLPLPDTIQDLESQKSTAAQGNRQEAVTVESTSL
Procedure: The IC50 values of the compounds in inhibiting reabsorption of specific substrates were determined using MDCK (canine kidney cell) cell line stably transfected with OAT-4 (organic anion transporter-4) gene.
The cell culture medium used in the intake inhibition experiment was DMEM (cell essential medium culture medium) supplemented with 10% FBS (containing penicillin and streptomycin). […] The cell suspensions were adjusted to obtain a density of 2.0-3.0×10^5 cells/mL with medium, and then inoculated into 24-well cell culture plates in an amount of 1 mL/well. The cells were cultured in an incubator with 5% CO2 and saturated air humidity at 37° C. for 2-3 days, after which the cells grew over the wells. […]
The uptake value of the transporter cells in the group containing only the radiolabeled substrate (deducting the uptake value U0 cells with empty vector in the background group) was defined as 100% (control, Uc), which was counted as a standard for the calculation of the percentage (%) of the intake value U (after deducting the background) in each administration group after adding the tested compounds against the intake value Uc in the control group, and the inhibitory rate (IR) of each concentration on the activity of the transporter was calculated to express the extent of the inhibitory effect of the compounds on the transporters. […]

[1] = Pharmacokinetics in cynomolgus monkeys after IV and PO administration; assay type: in vivo; conditions: for Vd: read-out: Apparent volume of distribution Vdss; for clearance: read-out: Clearance rate Cl; for half-life: read-out: Half-life T1/2 (converted); for C0: read-out: Initial concentration C0; for MRT inf: read-out: Residence time MRT0-inf; for Cmax: read-out: Peak concentration Cmax; for Tmax: read-out: Time to peak Tmax; for Mutual transformation between the two axially chiral isomers in vivo: circulation system
Procedure: 24 healthy adult male cynomolgus monkeys were divided into 8 groups (there were IV and PO groups for each compound) with 3 animals per group.
An appropriate amount of the samples was weighted and dissolved in a certain amount of DMSO by ultrasound, followed by addition of PEG400 solution to obtain clear solutions (DMSO/PEG400/H2O (5/40/55)) of the compounds to be tested with a concentration of 2 mg/mL for IV administration.
An appropriate amount of the samples was weighted and dissolved in a certain amount of DMSO by ultrasound, followed by addition of 0.5% MC solution to obtain suspensions (DMSO/0.5% MC (5/95)) of the compounds to be tested with a concentration of 2 mg/mL for PO administration.
24 male cynomolgus monkeys were divided into 8 groups with 3 animals per group, and the drugs were administered through IV and PO after the animals had been fasting overnight. The dose for IV administration was 2 mg/kg and the dosing volume was 1 mL/kg; the dose for PO administration was 10 mg/kg and the dosing volume was 5 mL/kg.
In the IV administration groups, approximately 200 μL of blood was collected 0.083, 0.25, 0.5, 1, 2, 4, 6, 8, and 24 hours after administration; the collected blood samples were added into anticoagulation tubes containing K2-EDTA and centrifuged at 3000 rpm for 15 minutes; the plasma was isolated and stored at −80° C. In the PO administration groups, the blood was collected 0.25, 0.5, 1, 2, 4, 6, 8, and 24 hours after administration, and other operations were the same as in the IV administration group. After the plasma samples were pre-treated to precipitate the protein, the drug concentration in the plasma was determined by LC/MS/MS method. The linear range of the analysis method was 20.00-6000 nM. In PO administration group, urine was collected 0-24 hours after administration, and the drug concentration in the urine was determined by LC/MS/MS method. The linear range of the analysis method was 20.00-6000 nM.

[2] = Solid stability test of the crystal form A of compound 1; assay type: physicochemical; conditions: high temperature, high humidity and strong light
Description: Samples placed under high temperature and high humidity conditions were sealed with aluminum foil paper and small holes were punched in the aluminum foil paper to ensure that the sample could fully contact with ambient air; samples placed under strong light conditions were sealed with threaded caps. The samples placed under different conditions were sampled and tested on the 5th day and 10th day (XRPD and HPLC), and the test results were compared with the initial test results obtained on day 0.

Liver cells [3] = conditions: Dog; cited from earlier work
Liver cells [4] = conditions: Human; cited from earlier work
[5] = human, 0-144 hour, after lesinurad, cited from earlier work
Liver cells [6] = conditions: Monkey; cited from earlier work
Liver cells [7] = conditions: Rat; cited from earlier work
[8] = Liver microsomes, Monkey; cited from earlier work
[9] = Liver microsomes, Human; cited from earlier work
[10] = Liver microsomes, Rat; cited from earlier work
[11] = Liver microsomes, Dog; cited from earlier work
human liver cells = assay: Metabolite detection after incubation in human liver cells for 120 minutes (LC-UV-MSn); assay type: in vitro ADME; conditions: for UV area percentage: 10 μM
Procedure: The objective of this experiment is detect the metabolites of the compounds after incubation in human liver cells for 120 minutes using LC-UV-MS^n (n=1-2). After data collection, MetaboLynx™ software was used to analyze MS and MS^2 data.
After the cells were incubated with the samples for 2 hours, protein was precipitated using acetonitrile containing formic acid and then the mixture was centrifuged. The supernatant was taken out and blow-dried with nitrogen, and then redissolved and injected for analysis.

[12] = male, cynomolgus monkey, plasma, iv, 2 mg/kg, IV, 2 mg/kg
[13] = male, cynomolgus monkey, plasma, po, 10 mg/kg, PO, 10 mg/kg
[14] = IV, 2 mg/kg, listed as Compound 1b (crystal form C)
[15] = PO, 10 mg/kg, listed as Compound 1b (crystal form C)
[16] = PO, 10 mg/kg, listed as Compound 1a (crystal form B)

SMILES: O=C(O)CSc1nnc(Br)n1-c1ccc(C2(O)CC2)c2ccccc12 [Compound M3]
Amount of lesinurad and metabolites (Total 100) (Liver cells [3]): not detected
Amount of lesinurad and metabolites (Total 100) (Liver cells [4]): 2.24%
Percentage of the administered dose ([5]; Faeces): 0.3%
Percentage of the administered dose ([5]; Urine): 12.0%
Amount of lesinurad and metabolites (Total 100) (Liver cells [6]): 1.45%
Amount of lesinurad and metabolites (Total 100) (Liver cells [7]): not detected
Amount of lesinurad and metabolites (Total 100) [8]: 7.9%

SMILES: O=C(O)CSc1nnc(Br)n1-c1ccc(C2CC2)c2ccccc12 (racemic) [(±)-Lesinurad, lesinurad, reference compound]
Amount of lesinurad and metabolites (Total 100) [9]: 100%
Amount of lesinurad and metabolites (Total 100) [10]: 100%
Amount of lesinurad and metabolites (Total 100) (Liver cells [3]): 100%
Amount of lesinurad and metabolites (Total 100) (Liver cells [4]): 92.1%
Percentage of the administered dose ([5]; Faeces): 1.5%
Percentage of the administered dose ([5]; Urine): 31.3%
Amount of lesinurad and metabolites (Total 100) (Liver cells [6]): 98.1%
Amount of lesinurad and metabolites (Total 100) [11]: 100%
Area under the curve AUG0-inf ([1]; PO, 10 mg/kg): 69.3 µM·h
Mean drug concentration in urine (0-24 h) Curine, 0-24 h ([1]; PO, 10 mg/kg): 71.622 µM
half-life [1, 13]: 3.78 h
Cmax [1, 13]: 37.2 µM
MRT inf [1, 13]: 3.44 h
Tmax [1, 13]: 0.58 h
Amount of lesinurad and metabolites (Total 100) (Liver cells [7]): 100%
Amount of lesinurad and metabolites (Total 100) [8]: 92.1%
UV area percentage (human liver cells): 95.60%

SMILES: O=C(O)CSc1nncn1-c1ccc(C2CC2)c2ccccc12 [Compound M2]
Percentage of the administered dose ([5]; Faeces): 4.8%
Percentage of the administered dose ([5]; Urine): 0.3%

SMILES: O=C(O)CSc1nncn1-c1ccc(C2(O)CC2)c2ccccc12 [Compound M5]
Percentage of the administered dose ([5]; Faeces): 3.6%

SMILES: O=C(O)CSc1nnc(Br)n1-c1ccc(C2CC2)c2c1C=CC(O)C2O (centres unmarked) [Compound M4]
Amount of lesinurad and metabolites (Total 100) (Liver cells [3]): not detected
Amount of lesinurad and metabolites (Total 100) (Liver cells [4]): 5.69%
Percentage of the administered dose ([5]; Faeces): 5.0%
Percentage of the administered dose ([5]; Urine): 15.7%
Amount of lesinurad and metabolites (Total 100) (Liver cells [6]): 0.47%
Amount of lesinurad and metabolites (Total 100) (Liver cells [7]): not detected

Now from value to compound:

IC50 (URAT-1): 10.4 µM
IC50 (OAT-4; substrate 3H-estrone ammonium sulfate, read-out: IC50 of the inhibition on OAT-4 transporting 3H-ES (3H-estrone ammonium sulfate)): 17.1 µM
IC50 (OAT-4; substrate 14C-uric acid, read-out: IC50 of the inhibition on OAT-4 transporting 14C-UA (14C-uric acid)): 7.92 µM
Area under the curve AUG0-inf ([1]; IV, 2 mg/kg): 18.389 µM·h
Area under the curve AUG0-inf ([1]; PO, 10 mg/kg): 120.062 µM·h
Mean drug concentration in urine (0-24 h) Curine, 0-24 h ([1]; PO, 10 mg/kg): 38.915 µM
Vd [1, 12]: 1.09 L/kg
clearance [1, 12]: 4.2 mL/min/kg
half-life [1, 12]: 3.61 h
C0 [1, 12]: 42.2 µM
MRT inf [1, 12]: 4.01 h
bioavailability ([1]; male, cynomolgus monkey, plasma, po, 10 mg/kg, PO, 10 mg/kg, read-out: Bioavailability F): 131%
half-life [1, 13]: 3.34 h
Cmax [1, 13]: 46.1 µM
MRT inf [1, 13]: 3.76 h
Tmax [1, 13]: 0.83 h
Solid stability (conclusion) [2]: good stability
SMILES: O=C(O)CSc1nnc(Br)n1-c1c(Cl)cc(C2CC2)c2ccccc12 [Compound 1]

IC50 (URAT-1): > 20 µM
Apparent volume of distribution Vdss [1, 14]: 0.661 L/kg
Area under the curve AUG0-inf [1, 14]: 16.092 µM·h
Clearance rate Cl [1, 14]: 4.78 mL/min/kg
Half-life T1/2 [1, 14]: 4.28 h
Residence time MRT0-inf [1, 14]: 2.34 h
C0 ([1]; IV, 2 mg/kg, listed as Compound 1b (crystal form C), 2 mg/kg): 42.1 µM
Area under the curve AUG0-inf [1, 15]: 62.456 µM·h
Bioavailability F [1, 15]: 77.6%
Half-life T1/2 [1, 15]: 4.46 h
Residence time MRT0-inf [1, 15]: 5.74 h
Time to peak Tmax [1, 15]: 2.33 h
Cmax ([1]; PO, 10 mg/kg, listed as Compound 1b (crystal form C), 10 mg/kg): 13.2 µM
Mean drug concentration in urine (0-24 h) Curine, 0-24 h [1, 15]: 7.976 µM
Mutual transformation between the two axially chiral isomers in vivo [1]: no mutual transformation
Metabolite detection (human liver cells): no metabolite was detected
UV area percentage (human liver cells): 100%
SMILES: O=C(O)CSc1nnc(Br)n1-c1c(Cl)cc(C2CC2)c2ccccc12 (single isomer, unassigned) [Compound 1b]

Area under the curve AUG0-inf ([1]; IV, 2 mg/kg, listed as Compound 1a (crystal form B)): 15.709 µM·h
Area under the curve AUG0-inf [1, 16]: 89.77 µM·h
Bioavailability F [1, 16]: 132%
Mean drug concentration in urine (0-24 h) Curine, 0-24 h [1, 16]: 54.403 µM
Mutual transformation between the two axially chiral isomers in vivo [1]: no mutual transformation
Vd [1, 12]: 0.533 L/kg
clearance [1, 12]: 4.88 mL/min/kg
half-life [1, 12]: 3.39 h
C0 [1, 12]: 32 µM
MRT inf [1, 12]: 1.83 h
half-life [1, 13]: 4.1 h
Cmax [1, 13]: 22.6 µM
MRT inf [1, 13]: 4.65 h
Tmax [1, 13]: 1.33 h
Metabolite detection (human liver cells): no metabolite was detected
UV area percentage (human liver cells): 100%
SMILES: O=C(O)CSc1nnc(Br)n1-c1c(Cl)cc(C2CC2)c2ccccc12 (single isomer, unassigned) [Compound 1a]
